What was measured:
MCF-10A cells = assay: MTT assay, cytotoxicity on normal mammary epithelial cells MCF-10A; assay type: cell-based, human; details: 72 h, normal cells, mean ± SD of three experiments
Description: (§1) All cell lines used for the reported studies were purchased from the American Type Culture Collection (ATCC, Manassas, VA, USA). Human breast cancer cells MCF-7 and MDA-MB-231 were maintained in Dulbecco’s Modified Eagle Medium/Nutrient Mixture F12 Ham (DMEM/F12) supplemented with 5% fetal bovine serum (FBS), 1% L-glutamine and 100 units/mL of penicillin/streptomycin. Human mammary epithelial cells MCF-10A were cultured in DMEM/F12 medium, supplemented with 5% horse serum (HS), 100 units/mL of penicillin/streptomycin, […], 0.02 µg/mL human epidermal growth factor (EGF), 10 µg/mL insulin and […] [34]. The murine macrophages RAW 264.7 were grown in Dulbecco’s Modified Eagle’s Medium (DMEM) high glucose (4.5 g/L), added with 10% fetal bovine serum (FBS), 1% L-glutamine and 100 units/mL of penicillin/streptomycin. Cells were maintained at 37 °C, in a humidified atmosphere containing 5% CO2.
(§2) Cell viability was determined using the 3-(4,5-dimethylthiazol-2-y1)-2,5-diphenyltetrazolium bromide assay (MTT, Sigma-Aldrich, Milan, Italy), as in [35]. Cells were treated for 72 h (anticancer activity) or 24 h (anti-inflammatory activity) at different concentrations and the IC50 values were obtained using GraphPad Prism 9 software (GraphPad Software, La Jolla, CA, USA).

MDA-MB-231 cells = assay: MTT assay, anticancer activity, MDA-MB-231; assay type: cell-based, human; details: for IC50: mean ± SD of three experiments
Description: as §1, §2

[1] = tested on: Escherichia coli (ATCC 25922); assay: MIC and MBC by broth dilution, E. coli; assay type: cell-based; details: for M.B.C. E. coli / M.I.C. E. coli / MIC: broth dilution, overnight 37 °C; for MIC: Escherichia coli, ATCC25922
Description: (§3) The bacterial strains used for MIC and MBC value determinations expressed as µg/mL by the broth dilution method, according to CLSI guidelines, were the following: Gram-negative: Escherichia coli (ATCC® 25922TM); Gram-positive: Staphylococcus aureus (ATCC® 23235TM). The MIC represents the lowest concentration of compound able to inhibit the visible microbial growth, expressed in μg/mL, whereas the MBC is the lowest concentration of a given compound that can completely kill the bacteria. Bacteria were grown overnight in LB medium (2%), diluted at a density of […] colony forming units (CFUs/mL), plated in the 96-well microplates to obtain a total inoculum load of ca. 10^5 cells/well and then treated with increasing concentrations of the tested complexes (1, 5, 10, 20, 50, 100, 200 μg/mL). Successively, after incubation at 37 °C overnight, the bacterial growth was monitored at a wavelength of 600 nm using a Multiskan spectrophotometer (Multiskan Ex Microplate model; Thermo Scientific, Nyon, Switzerland). MIC or MBC values were obtained by comparing cell density with a positive control (bacterial cells grown in LB medium were added with only the vehicle, DMSO). The results were representative of three independent experiments performed in triplicate and ampicillin (Sigma Aldrich A9393) was used as the control for strain sensitivity.

MCF-7 cells = assay: MTT assay, anticancer activity, MCF-7; assay type: cell-based, human; details: mean ± SD of three experiments
Description: as §1, §2

[2] = tested on: Staphylococcus aureus (ATCC 23235); assay: MIC and MBC by broth dilution, S. aureus; assay type: cell-based; details: for M.B.C. S. aureus / M.I.C. S. aureus / MIC: broth dilution, overnight 37 °C; for MIC: Staphylococcus aureus, ATCC23235, read-out: M.I.C. S. aureus
Description: as §3

[3] = tested on: NO production in LPS-stimulated RAW 264.7 macrophages (iNOS); assay: Griess assay, NO production in LPS-stimulated RAW 264.7 macrophages; assay type: cell-based, murine; details: 24 h, LPS 1 µg/mL, RAW 264.7, vs LPS only
Description: Inflammation is an important process, in which the immune system is activated, allowing the protection from infections by eliminating pathogens and promoting repairing phenomena. However, in some cases, the inflammation can become chronic, playing a key role in several diseases, such as cancer, diabetes, autoimmune and neurodegenerative disorders. Moreover, chronic inflammation is characterized by a proliferation of different specialized cells, for instance macrophages, fibroblasts, granulocytes and so on. […] NO is produced by nitric oxide synthases (NOS) isoforms, but under different pro-inflammatory stimuli (cytokines or microbial products) it is massively produced by the inducible NOS (iNOS, NOS2; or type II NOS). iNOS can be also overexpressed in several diseases, producing NO in an unregulated manner and contributing to the disease progression. For these reasons, its inhibition represents a good strategy for the treatment of various diseases related to chronic inflammation, amongst them cancer. The anti-inflammatory activity, in terms of NO production inhibition, of the new synthesized chiral complexes was evaluated by the means of a Griess-based assay. Particularly, the NO production was induced in murine macrophages RAW 264.7 stimulated with bacterial lipopolysaccharide (LPS), then they were exposed to the complexes for 24 h and the released NO was quantified (as detailed in the Section 3). […] Therefore, pro-ligands P1 and P2, as R and S pure enantiomers, were tested. The obtained outcomes are visible in Figure 2 (panels A and B, P1 and P2 series, respectively), where it is possible to notice “at glance” that most of the enantiopure compounds were unable to decrease the NO synthesis, induced by LPS treatment in RAW 264.7 macrophages (see pink bars in the graph), with the exception of (R)-AuL1 and (R)-AuL2. Particularly, (R)-AuL1 was able to decrease, dose-dependently, the NO production of about 23 and 35% at 5 and 10 µM, respectively, whereas the S enantiomer was unable to reduce NO, under the same experimental conditions. […] Furthermore, none of the pro-ligands was found able to decrease NO production. […] Finally, viability assays were performed on RAW 264.7 macrophages, recovered after the Griess test.
Anti-inflammatory activity was tested adopting the Griess assay on RAW 264.7 murine macrophages, by measuring NO production, as reported by. Specifically, RAW 264.7 cells were plated on 48 multi-wells and treated with the tested molecules at the indicated concentrations; lipopolysaccharide (LPS, Sigma Aldrich, Milan, Italy), at a final concentration of 1 µg/mL, was used to induce inflammation and stimulate NO production. After 24 h, the cell medium and Griess reagent were mixed at a 1:1 ratio and left under agitation for 30 min, at room temperature. Then, absorbance was measured at 540 nm, using a multiplate reader. The absorbance obtained allowed to assess the percentage of NO production compared with the positive control, in which the cells have been treated with LPS.
Figure 2 Panel (A), L1 series and panel (B), L2 series. Anti-inflammatory activity (pink bars): NO production was induced in murine macrophages RAW 264.7 treated with LPS (1 µg/mL), in presence or not of the enantiopure complexes and pro-ligands at the indicated concentrations (µM), for 24 h. Indomethacin (Ind) was used as the reference molecule. Data were plotted as % NO inhibition with respect to LPS-only treatment. […]

Row | IC50 (MDA-MB-231 cells; Homo sapiens, MDA-MB-231, 72 h) [µM] | MIC [1] [µg/mL] | IC50 (MCF-7 cells; Homo sapiens, MCF7, 72 h) [µM] | MIC [2] [µg/mL] | SMILES | IC50 (MCF-10A cells) [µM] | IC50 (MDA-MB-231 cells; 72 h) [µM] | M.B.C. E. coli [1] [µg/mL] | M.I.C. E. coli [1] [µg/mL] | IC50 (MCF-7 cells; 72 h) [µM] | M.B.C. S. aureus [2] [µg/mL] | M.I.C. S. aureus [2] [µg/mL] | IC50 (MCF-10A cells; Homo sapiens, MCF-10A) [µM] | decrease of NO production ([3]; 5 µM) | decrease of NO production ([3]; 10 µM) [%] | effect on MDA-MB-231 viability (in words) (MDA-MB-231 cells; 72 h) | decrease of NO production ([3]; 50 µM) | strain sensitivity E. coli (in words) ([1]; control for strain sensitivity) | strain sensitivity S. aureus (in words) ([2]; control for strain sensitivity)
1 |  |  |  |  | CN1C=CN(C[C@@H](O)c2ccccc2)[CH]1[Au-][Cl] (stereo partly drawn) [(S)-AuL1, (1-((S)-2-hydroxy-2-phenylethyl)-3-methyl-2,3-dihydro-1H-imidazol-2-yl)gold(I) chloride] | 64.5 ± 3.2 | 22.6 ± 0.4 | > 150 | 75 | 14.6 ± 1 | > 150 | 75 |  |  |  |  |  |  | 
2 | > 200 | 75 | > 200 | 75 | C[n+]1cn(C[C@@H](O)c2ccccc2)c(Cl)c1Cl.[I-] [(S)-P2, (S)-4,5-dichloro-1-(2-hydroxy-2-phenylethyl)-3-methyl-1H-imidazol-3-ium iodide] |  |  | > 150 |  |  | > 200 |  | > 200 |  |  |  |  |  | 
3 |  |  |  |  | CN1C=CN(C[C@H](O)c2ccccc2)[CH]1[Au-][Cl] (stereo partly drawn) [(R)-AuL1, (1-((R)-2-hydroxy-2-phenylethyl)-3-methyl-2,3-dihydro-1H-imidazol-2-yl)gold(I) chloride] | 52.9 ± 2.2 | 15.3 ± 4.5 | > 150 | 75 | 16 ± 0.8 | > 150 | 25 |  | about 23% | ~35 |  |  |  | 
4 |  |  |  |  | CN1C(Cl)=C(Cl)N(C[C@@H](O)c2ccccc2)[CH]1[Au-][Cl] (stereo partly drawn) [(S)-AuL2, (4,5-dichloro-1-((S)-2-hydroxy-2-phenylethyl)-3-methyl-2,3-dihydro-1H-imidazol-2-yl)gold(I) chloride] | 17.2 ± 1.6 | 11.5 ± 0.4 | > 200 | 100 | 10 ± 0.5 | > 100 | 75 |  |  |  |  |  |  | 
5 |  |  |  |  | CN1C=CN(C[C@@H](O)c2ccccc2)[CH]1[AgH][I] (stereo partly drawn) [(S)-AgL1, (1-((S)-2-hydroxy-2-phenylethyl)-3-methyl-2,3-dihydro-1H-imidazol-2-yl)silver(I) iodide] | > 200 | > 200 | > 200 | 75 | 69.8 ± 2.1 | > 100 | 50 |  |  |  |  |  |  | 
6 |  |  |  |  | CN1C(Cl)=C(Cl)N(C[C@@H](O)c2ccccc2)[CH]1[AgH][I] (stereo partly drawn) [(S)-AgL2, (4,5-dichloro-1-((S)-2-hydroxy-2-phenylethyl)-3-methyl-2,3-dihydro-1H-imidazol-2-yl)silver(I) iodide] | > 200 | > 200 | > 200 | 75 | 4 ± 0.5 | > 200 | 75 |  |  |  | inactive |  |  | 
7 |  |  |  |  | CN1C(Cl)=C(Cl)N(C[C@H](O)c2ccccc2)[CH]1[AgH][I] (stereo partly drawn) [(R)-AgL2, (4,5-dichloro-1-((R)-2-hydroxy-2-phenylethyl)-3-methyl-2,3-dihydro-1H-imidazol-2-yl)silver(I) iodide] | 69.2 ± 2.7 | 6.7 ± 0.7 | > 100 | 50 | 18.4 ± 0.9 | > 150 | 75 |  |  |  |  |  |  | 
8 | > 200 | 100 | > 200 | 75 | C[n+]1ccn(C[C@H](O)c2ccccc2)c1.[I-] [(R)-P1, (R)-1-(2-hydroxy-2-phenylethyl)-3-methyl-1H-imidazol-3-ium iodide] |  |  | > 200 |  |  | > 150 |  | > 200 |  |  |  |  |  | 
9 | > 200 | 75 | > 200 | 75 | C[n+]1cn(C[C@H](O)c2ccccc2)c(Cl)c1Cl.[I-] [(R)-P2, (R)-4,5-dichloro-1-(2-hydroxy-2-phenylethyl)-3-methyl-1H-imidazol-3-ium iodide] |  |  | > 200 |  |  | > 150 |  | > 200 |  |  |  |  |  | 
10 | > 200 | 100 | > 200 | 75 | C[n+]1ccn(C[C@@H](O)c2ccccc2)c1.[I-] [(S)-P1, (S)-1-(2-hydroxy-2-phenylethyl)-3-methyl-1H-imidazol-3-ium iodide] |  |  | > 200 |  |  | > 150 |  | > 200 |  |  |  |  |  | 
11 |  |  |  |  | COc1ccc2c(c1)c(CC(=O)O)c(C)n2C(=O)c1ccc(Cl)cc1 [Ind, Indomethacin, reference compound] |  |  |  |  |  |  |  |  |  |  |  | about 26% |  | 
12 |  |  |  |  | CC1(C)S[C@@H]2[C@H](NC(=O)[C@H](N)c3ccccc3)C(=O)N2[C@H]1C(=O)O [ampicillin, reference compound] |  |  |  |  |  |  |  |  |  |  |  |  | sensitive | sensitive
13 |  |  |  |  | CN1C=CN(C[C@H](O)c2ccccc2)[CH]1[AgH][I] (stereo partly drawn) [(R)-AgL1, (1-((R)-2-hydroxy-2-phenylethyl)-3-methyl-2,3-dihydro-1H-imidazol-2-yl)silver(I) iodide] | 54.8 ± 2.1 | 9.2 ± 0.5 | > 100 | 25 | 14.5 ± 1.2 | > 150 | 75 |  |  |  |  |  |  | 
